According to PubChem BioAssay (NCI):
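All cell lines were grown in 96-well plates and treated with compound for 48 hours. GI50 = concentration required for 50% inhibition of growth. TGI is the concentration that stops growth completely.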

Columns and labels:
Experiment in all cases: growth of human tumour cells (NCI), 48 h
786-0 renal = system: 786-0 renal
HCC-2998 colon = system: HCC-2998 colon
HOP-92 NSCLC = system: HOP-92 NSCLC
BT-549 breast = system: BT-549 breast
T-47D breast = system: T-47D breast
OVCAR-5 ovarian = system: OVCAR-5 ovarian
U251 CNS = system: U251 CNS
OVCAR-4 ovarian = system: OVCAR-4 ovarian
PC-3 prostate = system: PC-3 prostate
MALME-3M melanoma = system: MALME-3M melanoma

Compound	GI50 (786-0 renal)	TGI (786-0 renal)	GI50 (HCC-2998 colon)	TGI (HCC-2998 colon)	GI50 (HOP-92 NSCLC)	TGI (HOP-92 NSCLC)	GI50 (BT-549 breast)	TGI (BT-549 breast)	GI50 (T-47D breast)	TGI (T-47D breast)	GI50 (OVCAR-5 ovarian)	TGI (OVCAR-5 ovarian)	GI50 (U251 CNS)	TGI (U251 CNS)	GI50 (OVCAR-4 ovarian)	TGI (OVCAR-4 ovarian)	GI50 (PC-3 prostate)	TGI (PC-3 prostate)	GI50 (MALME-3M melanoma)	TGI (MALME-3M melanoma)
NC1=NC(c2ccccc2Cl)c2c(n[nH]c2N)N1 (configuration not stated)	9.18 µM	> 100 µM	65 µM	> 100 µM	18.2 µM	> 100 µM	27.4 µM	> 100 µM	26.1 µM	> 100 µM	50.2 µM	> 100 µM	28 µM	> 100 µM	> 100 µM	> 100 µM	85.8 µM	> 100 µM	61.3 µM	> 100 µM
CN(C)C1C(=O)C(C(N)=O)=C(O)C2(O)C(=O)C3=C(O)c4c(O)cccc4C(C)(O)C3CC12.[Cl][Sb]([Cl])[Cl] (configuration not stated)	4.14 µM	17.6 µM	3.57 µM	14.1 µM	2.56 µM	7.61 µM	2.95 µM	10.4 µM	3.81 µM	13.2 µM	7.29 µM	26.1 µM	–	–	4.45 µM	19 µM	3.05 µM	9.92 µM	1.94 µM	4.6 µM
C#COc1cccc(Nc2ncnc3cc(NC(=O)[C@@H](C)Cl)ccc23)c1	19.3 µM	> 62.5 µM	13.9 µM	> 62.5 µM	> 62.5 µM	> 62.5 µM	6.89 µM	> 62.5 µM	22.5 µM	> 62.5 µM	18 µM	> 62.5 µM	7.29 µM	> 62.5 µM	–	–	11.7 µM	> 62.5 µM	20.1 µM	> 62.5 µM
COc1cc([C@@H]2c3cc4c(cc3[C@H](SC(=N)N)[C@H]3COC(=O)[C@H]23)OCO4)cc(OC)c1OC	0.435 µM	> 100 µM	0.338 µM	> 100 µM	37.1 µM	> 100 µM	2.3 µM	–	66.7 µM	> 100 µM	0.638 µM	> 100 µM	0.311 µM	> 100 µM	0.683 µM	> 100 µM	0.381 µM	> 100 µM	–	–
CO[C@H]1C(=O)[C@]2(C)[C@@H](OC)C[C@H]3OC[C@@]3(OC(C)=O)[C@H]2[C@H](OC(=O)c2ccccc2)[C@]2(O)C[C@H](OC(=O)[C@H](O)[C@@H](NC(=O)OC(C)(C)C)c3ccccc3)C(C)=C1C2(C)C	< 0.01 µM	87.3 µM	< 0.01 µM	< 0.0168 µM	–	33 µM	< 0.01 µM	26.8 µM	< 0.01 µM	> 100 µM	< 0.01 µM	41.5 µM	< 0.01 µM	23.8 µM	–	> 77.1 µM	< 0.01 µM	> 77.8 µM	–	–
Cc1ccccc1Nc1cc(O)c2c(=O)cc(-c3ccccc3)oc2c1	4.42 µM	> 100 µM	–	–	3.51 µM	> 100 µM	4.03 µM	> 100 µM	2.96 µM	> 100 µM	> 100 µM	> 100 µM	3.04 µM	> 100 µM	3.38 µM	> 100 µM	3.3 µM	> 100 µM	2.43 µM	> 100 µM
